According to ChEMBL document CHEMBL4800729 (2021):

Assays:
[1] = molecular target: T1, 5-hydroxytryptamine receptor 1A (Homo sapiens) (UniProt P08908); details: Compound concentration 10.0 uM
T1 sequence (whole entry): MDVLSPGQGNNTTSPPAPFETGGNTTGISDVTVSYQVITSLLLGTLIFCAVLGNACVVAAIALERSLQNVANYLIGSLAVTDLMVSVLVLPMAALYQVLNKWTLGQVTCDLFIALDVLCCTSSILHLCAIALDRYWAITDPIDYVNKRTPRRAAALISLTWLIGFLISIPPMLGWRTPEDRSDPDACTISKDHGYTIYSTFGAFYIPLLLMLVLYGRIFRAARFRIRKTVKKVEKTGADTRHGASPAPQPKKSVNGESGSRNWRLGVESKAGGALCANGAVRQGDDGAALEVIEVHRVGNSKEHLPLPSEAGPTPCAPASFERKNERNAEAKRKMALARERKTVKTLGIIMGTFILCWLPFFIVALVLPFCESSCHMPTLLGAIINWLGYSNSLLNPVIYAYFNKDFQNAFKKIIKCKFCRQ

[2] = molecular target: T2, 5-hydroxytryptamine receptor 1B (Homo sapiens, UniProt P28222); details: Compound concentration 10.0 uM
[3] = molecular target: Muscarinic acetylcholine receptor M4 (Homo sapiens) (UniProt P08173); details: Compound concentration 10.0 uM
Rattus norvegicus = organism: Rattus norvegicus; details: Compound concentration 10.0 uM
[4] = molecular target: D(3) dopamine receptor (Homo sapiens) (UniProt P35462); details: Compound concentration 10.0 uM
[5] = molecular target: Kappa-type opioid receptor (Homo sapiens) (UniProt P41145); details: Compound concentration 10.0 uM
[6] = molecular target: Histamine H2 receptor (Homo sapiens) (UniProt P25021); details: Compound concentration 10.0 uM
[7] = molecular target: Sodium-dependent noradrenaline transporter (Homo sapiens) (UniProt P23975); details: Compound concentration 10.0 uM
[8] = molecular target: 5-hydroxytryptamine receptor 2A (Homo sapiens) (UniProt P28223); details: Compound concentration 10.0 uM
D(1A) dopamine receptor = D(1A) dopamine receptor (Homo sapiens, UniProt P21728); test: GPCRScan assay: inhibition of D1; set-up: radioligand conc. used [nm] 0.6 – 1.3, parental cells HEKT
[9] = molecular target: T3, Alpha-2C adrenergic receptor (Homo sapiens) (UniProt P18825); details: Compound concentration 10.0 uM
T3 sequence (whole entry): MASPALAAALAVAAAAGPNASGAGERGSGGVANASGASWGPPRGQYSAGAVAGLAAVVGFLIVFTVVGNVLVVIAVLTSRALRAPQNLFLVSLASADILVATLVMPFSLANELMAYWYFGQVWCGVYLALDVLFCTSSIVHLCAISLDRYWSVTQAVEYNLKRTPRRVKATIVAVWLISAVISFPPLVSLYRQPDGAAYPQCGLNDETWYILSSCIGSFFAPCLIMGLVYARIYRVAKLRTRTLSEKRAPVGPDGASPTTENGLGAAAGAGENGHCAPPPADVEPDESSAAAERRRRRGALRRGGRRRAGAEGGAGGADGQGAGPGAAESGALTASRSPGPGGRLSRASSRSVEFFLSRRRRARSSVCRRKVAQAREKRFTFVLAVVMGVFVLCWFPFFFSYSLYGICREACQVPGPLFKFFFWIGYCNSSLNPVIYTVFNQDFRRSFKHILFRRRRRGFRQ

[10] = molecular target: T4, Alpha-2B adrenergic receptor (Homo sapiens) (UniProt P18089); details: Compound concentration 10.0 uM
T4 sequence (whole entry): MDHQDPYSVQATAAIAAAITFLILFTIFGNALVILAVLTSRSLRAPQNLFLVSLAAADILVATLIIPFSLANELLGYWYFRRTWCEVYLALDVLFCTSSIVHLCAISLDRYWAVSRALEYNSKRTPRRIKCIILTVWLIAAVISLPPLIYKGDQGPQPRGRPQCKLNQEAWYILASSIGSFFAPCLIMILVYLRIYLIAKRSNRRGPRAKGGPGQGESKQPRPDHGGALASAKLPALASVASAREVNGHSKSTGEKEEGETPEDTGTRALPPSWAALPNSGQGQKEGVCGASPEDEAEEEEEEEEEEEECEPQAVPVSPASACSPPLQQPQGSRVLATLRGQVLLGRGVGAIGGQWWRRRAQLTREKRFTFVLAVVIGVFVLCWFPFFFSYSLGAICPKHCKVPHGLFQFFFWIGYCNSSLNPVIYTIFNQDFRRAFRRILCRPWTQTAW

[11] = molecular target: 5-hydroxytryptamine receptor 6 (Homo sapiens, UniProt P50406); test: GPCRScan assay: inhibition of 5-HT6; set-up: radioligand conc. used [nm] 2.0 – 4.0, parental cells stable HEK
[12] = molecular target: Sigma non-opioid intracellular receptor 1 (Homo sapiens) (UniProt Q99720); details: Compound concentration 10.0 uM
[13] = molecular target: Sigma intracellular receptor 2 (Homo sapiens) (UniProt Q5BJF2); details: Compound concentration 10.0 uM
[14] = molecular target: D(2) dopamine receptor (Homo sapiens) (UniProt P14416); details: Compound concentration 10.0 uM
[15] = molecular target: 5-hydroxytryptamine receptor 1D (Homo sapiens) (UniProt P28221); details: Compound concentration 10.0 uM
[16] = molecular target: Delta-type opioid receptor (Homo sapiens) (UniProt P41143); details: Compound concentration 10.0 uM
[17] = molecular target: T2, 5-hydroxytryptamine receptor 1B; test: GPCRScan assay: inhibition of 5-HT1B; set-up: radioligand conc. used [nm] 0.6 – 1.5, parental cells stable HEK
[18] = molecular target: 5-hydroxytryptamine receptor 5A (Homo sapiens) (UniProt P47898); details: Compound concentration 10.0 uM
[19] = molecular target: Sodium-dependent dopamine transporter (Homo sapiens) (UniProt Q01959); details: Compound concentration 10.0 uM
[20] = molecular target: 5-hydroxytryptamine receptor 3A (Homo sapiens) (UniProt P46098); details: Compound concentration 10.0 uM
[21] = molecular target: Mu-type opioid receptor (Homo sapiens) (UniProt P35372); details: Compound concentration 10.0 uM
[22] = molecular target: Histamine H1 receptor (Homo sapiens) (UniProt P35367); details: Compound concentration 10.0 uM
[23] = molecular target: Alpha-2A adrenergic receptor (Homo sapiens) (UniProt P08913); details: Compound concentration 10.0 uM
[24] = molecular target: Histamine H4 receptor (Homo sapiens) (UniProt Q9H3N8); details: Compound concentration 10.0 uM
[25] = molecular target: D(4) dopamine receptor (Homo sapiens) (UniProt P21917); details: Compound concentration 10.0 uM
[26] = molecular target: Beta-3 adrenergic receptor (Homo sapiens) (UniProt P13945); details: Compound concentration 10.0 uM
[27] = molecular target: Beta-1 adrenergic receptor (Homo sapiens) (UniProt P08588); details: Compound concentration 10.0 uM
[28] = molecular target: Histamine H3 receptor (Homo sapiens) (UniProt Q9Y5N1); details: Compound concentration 10.0 uM
[29] = molecular target: T5, Muscarinic acetylcholine receptor M1 (Homo sapiens) (UniProt P11229); details: Compound concentration 10.0 uM
T5 sequence (whole entry): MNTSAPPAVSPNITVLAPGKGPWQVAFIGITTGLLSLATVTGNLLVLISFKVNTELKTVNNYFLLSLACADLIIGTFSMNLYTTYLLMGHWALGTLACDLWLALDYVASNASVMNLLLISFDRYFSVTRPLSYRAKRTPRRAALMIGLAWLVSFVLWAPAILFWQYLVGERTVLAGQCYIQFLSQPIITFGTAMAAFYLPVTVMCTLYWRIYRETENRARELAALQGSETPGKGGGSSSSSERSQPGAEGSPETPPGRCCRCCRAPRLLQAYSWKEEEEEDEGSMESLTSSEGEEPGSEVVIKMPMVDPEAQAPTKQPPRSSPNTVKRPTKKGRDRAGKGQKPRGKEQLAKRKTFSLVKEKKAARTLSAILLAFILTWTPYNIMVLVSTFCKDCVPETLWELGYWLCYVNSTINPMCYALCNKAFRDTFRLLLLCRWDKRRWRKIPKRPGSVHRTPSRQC

T2 sequence (P28222 whole entry): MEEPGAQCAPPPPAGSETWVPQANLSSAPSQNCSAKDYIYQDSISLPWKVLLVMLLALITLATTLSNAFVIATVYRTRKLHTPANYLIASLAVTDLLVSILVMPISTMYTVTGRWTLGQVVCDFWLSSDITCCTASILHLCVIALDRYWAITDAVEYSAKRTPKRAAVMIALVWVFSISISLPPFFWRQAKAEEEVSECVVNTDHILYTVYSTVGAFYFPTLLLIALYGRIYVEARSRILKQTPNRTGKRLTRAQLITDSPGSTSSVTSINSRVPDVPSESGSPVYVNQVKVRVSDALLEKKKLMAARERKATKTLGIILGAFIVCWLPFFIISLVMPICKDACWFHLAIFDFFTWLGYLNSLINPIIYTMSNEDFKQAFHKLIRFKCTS
Chain of 5-hydroxytryptamine receptor 6 (P50406 whole entry): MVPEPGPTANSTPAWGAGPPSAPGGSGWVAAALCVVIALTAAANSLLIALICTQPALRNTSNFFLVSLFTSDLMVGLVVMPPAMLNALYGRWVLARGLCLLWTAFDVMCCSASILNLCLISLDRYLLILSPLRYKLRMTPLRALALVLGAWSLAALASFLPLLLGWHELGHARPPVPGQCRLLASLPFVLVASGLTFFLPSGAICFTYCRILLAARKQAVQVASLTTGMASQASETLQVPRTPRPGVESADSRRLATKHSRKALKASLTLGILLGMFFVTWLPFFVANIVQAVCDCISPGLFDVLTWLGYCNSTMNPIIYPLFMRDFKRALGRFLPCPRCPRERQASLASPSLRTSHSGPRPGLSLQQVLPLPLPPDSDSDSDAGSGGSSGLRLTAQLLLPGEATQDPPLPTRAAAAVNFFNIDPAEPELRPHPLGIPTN
Chain of Sodium-dependent noradrenaline transporter (Homo sapiens) (P23975 whole entry): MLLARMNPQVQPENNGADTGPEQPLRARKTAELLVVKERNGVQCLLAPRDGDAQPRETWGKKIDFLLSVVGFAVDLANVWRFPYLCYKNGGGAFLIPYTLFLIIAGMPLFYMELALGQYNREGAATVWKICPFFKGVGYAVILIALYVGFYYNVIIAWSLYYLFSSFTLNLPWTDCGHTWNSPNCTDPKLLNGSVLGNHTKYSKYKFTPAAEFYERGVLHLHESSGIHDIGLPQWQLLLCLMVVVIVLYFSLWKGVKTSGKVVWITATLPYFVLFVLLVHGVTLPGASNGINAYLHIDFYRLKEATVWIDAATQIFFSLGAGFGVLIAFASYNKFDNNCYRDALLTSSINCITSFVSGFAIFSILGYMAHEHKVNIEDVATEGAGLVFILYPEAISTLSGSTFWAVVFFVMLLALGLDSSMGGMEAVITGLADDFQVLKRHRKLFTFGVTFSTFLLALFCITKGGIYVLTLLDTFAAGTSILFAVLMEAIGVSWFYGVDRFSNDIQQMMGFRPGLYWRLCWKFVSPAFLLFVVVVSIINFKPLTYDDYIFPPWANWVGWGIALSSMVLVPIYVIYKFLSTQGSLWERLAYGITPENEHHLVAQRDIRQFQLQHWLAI
Chain of Alpha-2A adrenergic receptor (Homo sapiens) (P08913 whole entry): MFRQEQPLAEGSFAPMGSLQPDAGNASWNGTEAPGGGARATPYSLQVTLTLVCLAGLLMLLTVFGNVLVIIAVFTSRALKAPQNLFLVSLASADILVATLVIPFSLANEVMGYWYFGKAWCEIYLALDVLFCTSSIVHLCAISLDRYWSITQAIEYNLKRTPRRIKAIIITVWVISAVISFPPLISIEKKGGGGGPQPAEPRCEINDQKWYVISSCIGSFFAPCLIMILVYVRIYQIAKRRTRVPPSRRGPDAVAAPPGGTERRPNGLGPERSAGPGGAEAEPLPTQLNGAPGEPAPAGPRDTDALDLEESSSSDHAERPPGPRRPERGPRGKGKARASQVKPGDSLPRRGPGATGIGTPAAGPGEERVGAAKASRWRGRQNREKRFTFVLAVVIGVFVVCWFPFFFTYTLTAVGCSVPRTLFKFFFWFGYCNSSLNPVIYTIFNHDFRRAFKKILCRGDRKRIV
Chain of 5-hydroxytryptamine receptor 5A (Homo sapiens) (P47898 whole entry): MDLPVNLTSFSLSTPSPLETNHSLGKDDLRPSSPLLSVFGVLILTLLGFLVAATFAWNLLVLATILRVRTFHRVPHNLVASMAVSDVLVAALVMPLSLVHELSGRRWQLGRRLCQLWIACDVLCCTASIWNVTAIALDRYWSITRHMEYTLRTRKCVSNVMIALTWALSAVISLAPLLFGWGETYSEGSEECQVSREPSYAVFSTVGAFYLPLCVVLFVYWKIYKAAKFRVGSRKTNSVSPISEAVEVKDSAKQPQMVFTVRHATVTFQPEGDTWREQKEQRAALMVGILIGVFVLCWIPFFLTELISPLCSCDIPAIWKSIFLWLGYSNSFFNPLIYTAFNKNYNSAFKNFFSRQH
Chain of Sigma intracellular receptor 2 (Homo sapiens) (Q5BJF2 whole entry): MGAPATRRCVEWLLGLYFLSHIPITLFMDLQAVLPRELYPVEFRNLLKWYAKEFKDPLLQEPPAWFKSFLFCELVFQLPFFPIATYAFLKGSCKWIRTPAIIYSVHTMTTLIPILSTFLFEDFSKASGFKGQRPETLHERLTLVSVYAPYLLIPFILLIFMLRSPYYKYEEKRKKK
Chain of D(2) dopamine receptor (Homo sapiens) (P14416 whole entry): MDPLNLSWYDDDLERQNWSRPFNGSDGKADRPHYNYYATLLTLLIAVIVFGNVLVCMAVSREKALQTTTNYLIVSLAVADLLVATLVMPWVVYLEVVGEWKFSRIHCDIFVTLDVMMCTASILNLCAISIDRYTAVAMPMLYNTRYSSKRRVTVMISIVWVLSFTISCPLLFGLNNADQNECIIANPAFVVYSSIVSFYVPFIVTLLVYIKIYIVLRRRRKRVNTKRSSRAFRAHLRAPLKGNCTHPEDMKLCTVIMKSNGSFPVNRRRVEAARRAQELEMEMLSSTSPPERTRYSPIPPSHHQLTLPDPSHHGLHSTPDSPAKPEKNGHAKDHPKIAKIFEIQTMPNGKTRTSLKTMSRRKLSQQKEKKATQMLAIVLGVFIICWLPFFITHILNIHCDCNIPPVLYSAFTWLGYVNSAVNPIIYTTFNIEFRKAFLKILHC
Chain of Beta-1 adrenergic receptor (Homo sapiens) (P08588 whole entry, looked up): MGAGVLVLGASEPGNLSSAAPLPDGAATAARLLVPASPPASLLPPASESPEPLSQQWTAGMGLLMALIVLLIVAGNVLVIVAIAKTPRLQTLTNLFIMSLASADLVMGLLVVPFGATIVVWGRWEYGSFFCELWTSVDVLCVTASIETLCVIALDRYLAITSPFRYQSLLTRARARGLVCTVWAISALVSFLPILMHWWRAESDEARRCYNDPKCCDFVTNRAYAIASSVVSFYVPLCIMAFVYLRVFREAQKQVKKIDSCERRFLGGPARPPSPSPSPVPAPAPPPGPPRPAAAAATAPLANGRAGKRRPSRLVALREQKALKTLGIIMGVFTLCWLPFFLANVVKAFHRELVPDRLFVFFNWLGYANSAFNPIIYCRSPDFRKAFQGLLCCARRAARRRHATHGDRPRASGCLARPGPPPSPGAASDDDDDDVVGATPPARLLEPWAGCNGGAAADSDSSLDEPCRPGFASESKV
Chain of Mu-type opioid receptor (Homo sapiens) (P35372 whole entry): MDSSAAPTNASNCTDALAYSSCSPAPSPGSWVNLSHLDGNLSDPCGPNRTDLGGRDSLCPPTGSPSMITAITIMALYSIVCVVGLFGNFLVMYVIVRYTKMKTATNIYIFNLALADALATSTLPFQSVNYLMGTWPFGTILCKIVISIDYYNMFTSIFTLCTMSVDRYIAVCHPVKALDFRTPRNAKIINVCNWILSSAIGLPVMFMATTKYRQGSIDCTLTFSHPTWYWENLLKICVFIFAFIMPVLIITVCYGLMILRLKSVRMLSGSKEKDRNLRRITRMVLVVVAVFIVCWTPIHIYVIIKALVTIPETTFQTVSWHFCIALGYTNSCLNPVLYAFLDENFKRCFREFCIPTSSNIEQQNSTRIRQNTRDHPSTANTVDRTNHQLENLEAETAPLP
Chain of 5-hydroxytryptamine receptor 3A (Homo sapiens) (P46098 whole entry): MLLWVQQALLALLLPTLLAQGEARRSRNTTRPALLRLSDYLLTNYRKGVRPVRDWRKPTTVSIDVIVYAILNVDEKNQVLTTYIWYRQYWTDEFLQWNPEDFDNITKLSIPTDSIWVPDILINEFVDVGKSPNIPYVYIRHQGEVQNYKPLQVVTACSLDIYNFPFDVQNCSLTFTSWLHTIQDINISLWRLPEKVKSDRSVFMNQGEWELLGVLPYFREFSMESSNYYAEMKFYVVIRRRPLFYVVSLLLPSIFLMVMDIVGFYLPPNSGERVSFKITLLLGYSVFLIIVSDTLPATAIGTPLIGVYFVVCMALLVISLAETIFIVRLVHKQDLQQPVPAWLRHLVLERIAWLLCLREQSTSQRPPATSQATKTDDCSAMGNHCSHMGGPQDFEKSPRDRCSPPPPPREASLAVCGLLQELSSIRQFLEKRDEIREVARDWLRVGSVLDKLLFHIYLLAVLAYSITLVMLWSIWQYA
Chain of Beta-3 adrenergic receptor (Homo sapiens) (P13945 whole entry, looked up): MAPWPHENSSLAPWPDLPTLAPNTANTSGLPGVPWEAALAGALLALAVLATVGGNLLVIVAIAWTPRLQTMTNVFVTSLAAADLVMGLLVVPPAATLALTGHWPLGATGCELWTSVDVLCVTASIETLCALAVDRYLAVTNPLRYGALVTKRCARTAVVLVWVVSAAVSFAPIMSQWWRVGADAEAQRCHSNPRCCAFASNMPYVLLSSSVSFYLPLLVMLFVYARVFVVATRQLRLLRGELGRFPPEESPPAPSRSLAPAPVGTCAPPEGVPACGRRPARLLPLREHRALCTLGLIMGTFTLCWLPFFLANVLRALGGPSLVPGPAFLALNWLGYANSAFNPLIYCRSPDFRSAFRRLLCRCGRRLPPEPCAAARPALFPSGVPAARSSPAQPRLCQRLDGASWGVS
Chain of Sigma non-opioid intracellular receptor 1 (Homo sapiens) (Q99720 whole entry): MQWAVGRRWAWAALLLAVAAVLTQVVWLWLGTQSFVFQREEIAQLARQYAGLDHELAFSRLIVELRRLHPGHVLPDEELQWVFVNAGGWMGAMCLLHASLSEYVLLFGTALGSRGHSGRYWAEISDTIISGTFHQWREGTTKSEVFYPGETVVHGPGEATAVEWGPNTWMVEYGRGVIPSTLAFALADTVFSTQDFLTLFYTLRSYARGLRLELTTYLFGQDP

## CC[C@H](Nc1c(C#N)c(-c2ccc(-c3cccc(C)c3F)cc2)nc2cnccc12)C(=O)O [BAY-0361]
[1]
  inhibition: 8.67%
[2]
  inhibition: 51%
[3]
  inhibition: -0.83%
Rattus norvegicus
  inhibition: 41.8%
[4]
  inhibition: 7.14%
[5]
  inhibition: 4.36%
[6]
  inhibition: 9.78%
[7]
  inhibition: -6.08%
[8]
  inhibition: -9.27%
D(1A) dopamine receptor
  Ki: 9.48 µM
[9]
  inhibition: -6.46%
[10]
  inhibition: -7.7%
[11]
  Ki: > 10 µM
  pKi: < 5
[12]
  inhibition: 23.1%
[13]
  inhibition: 11.6%
[14]
  inhibition: -5.16%
[15]
  inhibition: 46.6%
[16]
  inhibition: 3.55%
[17]
  Ki: > 10 µM
  pKi: < 5
[18]
  inhibition: -9.19%
[19]
  inhibition: 38.8%
[20]
  inhibition: 2.07%
[21]
  inhibition: -9.08%
[22]
  inhibition: -8.53%
[23]
  inhibition: 8.09%
[24]
  inhibition: 18.7%
[25]
  inhibition: -8.01%
[26]
  inhibition: 21.6%
[27]
  inhibition: 5.52%
[28]
  inhibition: -8.98%
[29]
  inhibition: -8.53%
